The text below walks through data of BindingDB's records for doi:10.1016/s0742-8413(97)00614-2 (University of Montana, 1997).

The target of the assay is T1, 5-hydroxytryptamine receptor 1A (Oryctolagus cuniculus, UniProt Q9MZ11).
T1 sequence (Q9MZ11 whole entry): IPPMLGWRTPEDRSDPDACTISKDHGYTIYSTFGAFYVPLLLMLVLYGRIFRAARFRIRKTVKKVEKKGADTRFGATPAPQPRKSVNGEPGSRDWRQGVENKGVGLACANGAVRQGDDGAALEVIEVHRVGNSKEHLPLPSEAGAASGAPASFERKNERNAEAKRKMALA

Molecule `C=C1C(=O)O[C@H]2[C@H]1CC/C(C)=C\CC[C@@]1(C)O[C@@H]21` showed a Ki of more than 10 µM. As for `CSc1ccc2c(c1)C(N1CCN(C)CC1)Cc1ccccc1S2` (stereo unspecified) [methanesulfonic acid;1-methyl-4-(3-methylsulfanyl-5,6-dihydrobenzo[b][1]benzothiepin-5-yl)piperazine], the Ki was 0.81 µM. `COc1cccc(OC)c1OCCNCC1Oc2ccccc2OC1c1ccccc1` (stereo unspecified) [NSC_185453]: affinity was put at a Ki of 0.003 µM. `NCCc1ccc(O)c(O)c1`: the affinity corresponds to a Ki of 7.8 µM.

Take `O=C1NCN(c2ccccc2)C12CCN(CC1COc3ccccc3O1)CC2` (stereo unspecified) [8-(2,3-Dihydro-benzo[1,4]dioxin-2-ylmethyl)-1-phenyl-1,3,8-triaza-spiro[4.5]decan-4-one]: the Ki was determined as 0.0024 µM.

Consider `FC(F)(F)c1cccc(N2CCNCC2)c1` [TFMPP], for which affinity was put at a Ki of 0.13 µM.

The Ki is the equilibrium dissociation constant of an inhibitor or competing ligand from its target. A low value points to higher affinity.
